Tests used:
[1] = test system: F-4 (DNA, hairpin) ATGGCCGGCCGGAAAAACCGGCCGGCCAT; assay: MST instrument, initial fluorescence, Hill model; settings: Na+ (25 mM NaCl); 80 mM HEPES; 1 μM DNA; low 10^–5 M; fluorescence decrease ascribed to DNA condensation
[2] = test system: poly[d(G-C)2] (DNA, polymer) GC; assay: ethidium bromide displacement (fluorescence); settings: 12.5 μM EtBr displaced, 12.5 μM DNA, 1 h, per base
[3] = test system: F-1 (DNA, hairpin) CGCGAATTCGCGAAAAACGCGAATTCGCG; assay: MST instrument, initial fluorescence, Hill model; settings: Na+ (25 mM NaCl); 80 mM HEPES; 1 μM DNA; low 10^–5 M; fluorescence decrease ascribed to DNA condensation
[4] = test system: F-2 (DNA, hairpin) GCATTATAATGCAAAAAGCATTATAATGC; assay: MST instrument, initial fluorescence, Hill model; settings: Na+ (25 mM NaCl); 80 mM HEPES; 1 μM DNA; fluorescence decrease ascribed to DNA condensation
[5] = test system: poly[d(A-T)2] (DNA, polymer) AT; assay: ethidium bromide displacement (fluorescence); settings: 12.5 μM EtBr displaced, 12.5 μM DNA, 1 h, per base
[6] = test system: FRET-4 (DNA, hairpin) ATGGCCGGCCGGAAAAACCGGCCGGCCAT; assay: fluorescence (FRET) melting; settings: 10 μM compound (r = 10), 1.0 μM DNA; control Tm 83.0 °C; condensation; +1.21 °C at r = 2.5
[7] = test system: FRET-1 (DNA, hairpin) CGCGAATTCGCGAAAAACGCGAATTCGCG; assay: fluorescence (FRET) melting, Bard equation; settings: 1.0 μM DNA; r = 0–7; derived from Tm fraction bound; 37 °C pre-incubation
[8] = test system: F-3 (DNA, hairpin) ATCGGCGCCGATAAAAAATCGGCGCCGAT; assay: MST instrument, initial fluorescence, Hill model; settings: Na+ (25 mM NaCl); 80 mM HEPES; 1 μM DNA; low 10^–5 M; fluorescence decrease ascribed to DNA condensation
[9] = test system: FRET-2 (DNA, hairpin) GCATTATAATGCAAAAAGCATTATAATGC; assay: fluorescence (FRET) melting; settings: 10 μM compound (r = 10), 1.0 μM DNA; control Tm 61.5 °C
[10] = test system: poly[d(G-C)2] (DNA, polymer) GC; assay: limited-bound ethidium bromide fluorescence quenching, Hill model; settings: Na+ (40 mM NaCl); 80 mM HEPES pH 7.2; 5 μM EtBr, 25 μM DNA; EtBr fluorescence quenched; per base
[11] = test system: poly[d(A-T)2] (DNA, polymer) AT; assay: as above; settings: Na+ (40 mM NaCl); 80 mM HEPES pH 7.2; 5 μM EtBr, 25 μM DNA; EtBr fluorescence quenched; per base
[12] = test system: FRET-1 (DNA, hairpin) CGCGAATTCGCGAAAAACGCGAATTCGCG; assay: fluorescence (FRET) melting; settings: 7 μM compound (r = 7), 1.0 μM DNA; control Tm 74.9 °C
[13] = test system: FRET-3 (DNA, hairpin) ATCGGCGCCGATAAAAAATCGGCGCCGAT; assay: fluorescence (FRET) melting; settings: 10 μM compound (r = 10), 1.0 μM DNA; control Tm 79.7 °C; condensation; +0.48 °C at r = 2
[14] = test system: FRET-2 (DNA, hairpin) GCATTATAATGCAAAAAGCATTATAATGC; assay: fluorescence (FRET) melting, Bard equation; settings: 1.0 μM DNA; r = 0–10; derived from Tm fraction bound; 37 °C pre-incubation
[15] = apparent, complex prepared in situ, Kapp = Kb × 12.6/C50

EC50 [1]: 11.25 µM
C50 [2]: 6.318 µM
Kapp [2, 15]: 1.75e+07 M⁻¹
EC50 [3]: 11.92 µM
EC50 [4]: 9.2 × 10^–6 M
C50 [5]: 3.911 µM
Kapp [5, 15]: 2.84e+07 M⁻¹
Δ TM [6]: - 6.3 °C
Kb [7]: 1.06e+07 M⁻¹
EC50 [8]: 11.39 µM
Δ TM [9]: + 3.6 °C
Q (EC50) [10]: 12.86 µM
Q (EC50) [11]: 11.18 µM
Δ TM [12]: + 4.5 °C
Δ TM [13]: - 3.7 °C
Kb [14]: 4.38e+08 M⁻¹
Structure (SMILES): O=[N+]([O-])[O-].O=[N+]([O-])[O-].O=[N+]([O-])[O-].O=[N+]([O-])[O-].[Cu+2].[Cu+2].c1cnc2c(c1)cc(-n1cc(CCCCc3cn(-c4cc5cccnc5c5ncccc45)nn3)nn1)c1cccnc12

Source: paper PMC11705080 (2025)
